Columns and labels:
[1] = biological target: T1, RPS6KA2(Kin.Dom.1-N-terminal) (Homo sapiens, UniProt Q15349); test: KINOMEscan; assay type: binding; settings: 1 uM
T1 construct: RPS6KA2(Kin.Dom.1-N-terminal); purchased Ambit KINOMEscan (DiscoverX)
Procedure, shortened: (§1)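 Kinases were scored for inhibited substrate binding in the presence of 1 μM compound; this served as the first-pass selectivity screen.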

[2] = system: phospho-MEK1 (Ser217/Ser221) and phospho-ERK1/2 (Thr202/Tyr204, Thr185/Tyr187); test: Bio-Plex phospho-MEK1 and phospho-ERK1/2; assay type: cell-based; settings: 45 minute exposure, 1 µM, K-RAS wild-type and mutant cells
Description: The Bio-Plex assay system was used to measure signaling in drug-treated cells. Briefly, cells were incubated in the presence of drug for various amounts of time and then lysed in Bio-Rad cell lysis buffer (Bio-Rad). Protein quantification was performed using BCA assay (Pierce) and 5 µg of protein from each sample was used for Bio-Plex analysis. Phospho-signaling assays were performed using available phospho-signaling assay kits and quantified on a Bio-Plex 200 system (Bio-Rad): p-Iκβα (Ser32/Ser36), p-JNK (Thr183/Tyr185), p-MEK1 (Ser217/Ser221), p-ERK1/2 (Thr202/Tyr204, Thr185/Tyr187), p-p90RSK (Thr359/Ser363), p-p38 (Thr180/Tyr182), p-c-JUN (Ser63), p-ATF2 (Thr71), p-AKT (Ser473), p-S6 (Ser235/Ser236), p-STAT3 (Ser727), p-STAT3 (Tyr705), and p-GSK3α/β (Ser21/Ser9). Bio-Plex assay for total MEK1 was also performed as a loading control.

CDKL1 = biological target: T2, CDKL1 (Homo sapiens, UniProt Q00532); test: KINOMEscan; assay type: binding; settings: CDKL1, 1 uM
T2 construct: purchased Ambit KINOMEscan (DiscoverX)
Procedure, shortened: as §1

YANK1 = biological target: T3, YANK1 (Homo sapiens, UniProt Q8WU08); test: KINOMEscan; assay type: binding; settings: YANK1, 1 uM
T3 construct: purchased Ambit KINOMEscan (DiscoverX)
Procedure, shortened: as §1

CASK = biological target: T4, CASK (Homo sapiens, UniProt O14936); test: KINOMEscan; assay type: binding; settings: 1 uM
T4 construct: purchased Ambit KINOMEscan (DiscoverX)
Procedure, shortened: as §1

TRPM6 = biological target: T5, TRPM6 (Homo sapiens, UniProt Q9BX84); test: KINOMEscan; assay type: binding; settings: TRPM6, 1 uM
T5 construct: purchased Ambit KINOMEscan (DiscoverX)
Procedure, shortened: as §1

PIK3CA(H1047L) = biological target: T6, PIK3CA(H1047L) (Homo sapiens, UniProt P42336, H1047L); test: KINOMEscan; assay type: binding; settings: 1 uM
T6 construct: purchased Ambit KINOMEscan (DiscoverX)
Procedure, shortened: as §1

FLT3(D835Y) = biological target: T7, FLT3(D835Y) (Homo sapiens, UniProt P36888, D835Y); test: KINOMEscan; assay type: binding; settings: 1 uM
T7 construct: purchased Ambit KINOMEscan (DiscoverX)
Procedure, shortened: as §1

EGFR(L858R,T790M) = biological target: T8, EGFR(L858R,T790M) (Homo sapiens, UniProt P00533, L858R/T790M); test: KINOMEscan; assay type: binding; settings: 1 uM
T8 construct: purchased Ambit KINOMEscan (DiscoverX)
T8 sequence (P00533 25-1210 T790M/L858R): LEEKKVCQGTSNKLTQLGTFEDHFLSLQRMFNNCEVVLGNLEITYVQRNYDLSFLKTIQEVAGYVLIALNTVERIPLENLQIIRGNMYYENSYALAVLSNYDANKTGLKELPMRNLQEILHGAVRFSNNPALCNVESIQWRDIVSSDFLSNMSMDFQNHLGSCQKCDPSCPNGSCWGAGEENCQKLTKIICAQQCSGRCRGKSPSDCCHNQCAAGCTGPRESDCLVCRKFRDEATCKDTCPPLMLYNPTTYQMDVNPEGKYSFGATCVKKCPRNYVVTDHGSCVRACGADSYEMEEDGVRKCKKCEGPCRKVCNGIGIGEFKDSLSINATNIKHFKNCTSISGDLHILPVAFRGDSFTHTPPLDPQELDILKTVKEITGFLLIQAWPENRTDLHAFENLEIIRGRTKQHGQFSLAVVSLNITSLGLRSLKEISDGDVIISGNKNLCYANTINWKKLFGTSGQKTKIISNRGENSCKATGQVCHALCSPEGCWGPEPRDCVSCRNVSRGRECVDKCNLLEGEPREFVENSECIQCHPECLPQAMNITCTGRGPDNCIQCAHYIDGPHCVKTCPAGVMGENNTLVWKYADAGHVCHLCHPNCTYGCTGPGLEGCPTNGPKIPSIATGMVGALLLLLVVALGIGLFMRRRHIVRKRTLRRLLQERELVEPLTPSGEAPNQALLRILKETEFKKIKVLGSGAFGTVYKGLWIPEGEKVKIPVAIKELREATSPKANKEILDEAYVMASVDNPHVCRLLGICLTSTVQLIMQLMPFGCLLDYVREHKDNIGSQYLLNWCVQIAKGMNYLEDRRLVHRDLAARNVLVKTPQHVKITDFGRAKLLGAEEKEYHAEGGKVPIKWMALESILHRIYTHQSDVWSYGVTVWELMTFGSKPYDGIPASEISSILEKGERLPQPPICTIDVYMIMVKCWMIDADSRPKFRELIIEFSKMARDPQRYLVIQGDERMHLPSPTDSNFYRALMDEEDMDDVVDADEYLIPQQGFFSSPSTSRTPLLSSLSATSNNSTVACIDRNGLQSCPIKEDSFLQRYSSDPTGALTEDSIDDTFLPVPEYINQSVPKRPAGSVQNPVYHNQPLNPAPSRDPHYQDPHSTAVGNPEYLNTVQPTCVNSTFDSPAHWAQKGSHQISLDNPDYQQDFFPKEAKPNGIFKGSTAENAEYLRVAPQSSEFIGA
Procedure, shortened: as §1

[3] = biological target: T9, EGFR(L747-E749del, A750P) (Homo sapiens, UniProt P00533, A750P/DEL747-749); test: KINOMEscan; assay type: binding; settings: 1 uM
T9 construct: purchased Ambit KINOMEscan (DiscoverX)
Procedure, shortened: as §1

CDK5 = biological target: T10, CDK5 (Homo sapiens, UniProt Q00535); test: KINOMEscan; assay type: binding; settings: CDK5, 1 uM
T10 construct: purchased Ambit KINOMEscan (DiscoverX)
T10 sequence (Q00535 whole entry): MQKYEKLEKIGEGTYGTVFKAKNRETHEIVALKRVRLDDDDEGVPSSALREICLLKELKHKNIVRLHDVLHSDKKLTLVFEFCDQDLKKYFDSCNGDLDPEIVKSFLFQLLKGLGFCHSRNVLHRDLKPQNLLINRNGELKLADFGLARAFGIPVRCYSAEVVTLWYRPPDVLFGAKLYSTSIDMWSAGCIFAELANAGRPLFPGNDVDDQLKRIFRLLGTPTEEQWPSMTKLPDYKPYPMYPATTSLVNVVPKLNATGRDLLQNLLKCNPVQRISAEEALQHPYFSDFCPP
Procedure, shortened: as §1

NEK11 = biological target: T11, NEK11 (Homo sapiens, UniProt Q8NG66); test: KINOMEscan; assay type: binding; settings: NEK11, 1 uM
T11 construct: purchased Ambit KINOMEscan (DiscoverX)
T11 sequence (Q8NG66 whole entry): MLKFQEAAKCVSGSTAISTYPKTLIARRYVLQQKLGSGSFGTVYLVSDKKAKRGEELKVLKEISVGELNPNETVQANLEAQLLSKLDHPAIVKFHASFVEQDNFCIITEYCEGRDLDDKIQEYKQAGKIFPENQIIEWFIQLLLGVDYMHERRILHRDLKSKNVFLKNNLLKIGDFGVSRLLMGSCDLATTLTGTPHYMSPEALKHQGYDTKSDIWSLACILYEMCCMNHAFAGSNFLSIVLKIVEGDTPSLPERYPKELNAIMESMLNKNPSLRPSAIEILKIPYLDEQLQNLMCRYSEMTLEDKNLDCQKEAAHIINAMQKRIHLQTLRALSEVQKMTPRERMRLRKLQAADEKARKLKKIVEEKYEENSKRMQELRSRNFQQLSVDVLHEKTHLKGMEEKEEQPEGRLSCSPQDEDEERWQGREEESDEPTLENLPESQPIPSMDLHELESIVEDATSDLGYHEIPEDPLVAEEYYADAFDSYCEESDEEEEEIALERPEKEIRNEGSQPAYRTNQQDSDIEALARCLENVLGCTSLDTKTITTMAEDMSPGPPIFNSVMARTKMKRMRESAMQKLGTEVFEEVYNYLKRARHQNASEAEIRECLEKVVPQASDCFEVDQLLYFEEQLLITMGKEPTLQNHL
Procedure, shortened: as §1

MYLK4 = biological target: T12, MYLK4 (Homo sapiens, UniProt Q86YV6); test: KINOMEscan; assay type: binding; settings: MYLK4, 1 uM
T12 construct: purchased Ambit KINOMEscan (DiscoverX)
Procedure, shortened: as §1

MEK5 = biological target: T13, MEK5 (Homo sapiens, UniProt Q13163); test: KINOMEscan; assay type: binding; settings: MEK5, 1 uM
T13 construct: purchased Ambit KINOMEscan (DiscoverX)
T13 sequence (Q13163 whole entry): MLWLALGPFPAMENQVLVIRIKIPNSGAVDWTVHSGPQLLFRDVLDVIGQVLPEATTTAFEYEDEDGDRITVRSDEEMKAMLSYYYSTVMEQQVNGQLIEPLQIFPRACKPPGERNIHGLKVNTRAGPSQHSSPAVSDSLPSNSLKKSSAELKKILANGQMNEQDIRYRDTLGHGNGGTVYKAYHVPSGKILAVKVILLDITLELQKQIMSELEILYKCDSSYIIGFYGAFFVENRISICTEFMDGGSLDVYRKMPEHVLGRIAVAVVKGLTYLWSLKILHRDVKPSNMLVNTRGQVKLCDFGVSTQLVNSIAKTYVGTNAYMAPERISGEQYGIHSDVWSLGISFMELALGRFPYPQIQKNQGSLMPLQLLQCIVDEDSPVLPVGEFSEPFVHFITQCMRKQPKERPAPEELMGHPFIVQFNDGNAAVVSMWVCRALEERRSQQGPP
Procedure, shortened: as §1

PRKCI = biological target: T14, PRKCI (Homo sapiens, UniProt P41743); test: KINOMEscan; assay type: binding; settings: 1 uM
T14 construct: purchased Ambit KINOMEscan (DiscoverX)
T14 sequence (P41743 whole entry): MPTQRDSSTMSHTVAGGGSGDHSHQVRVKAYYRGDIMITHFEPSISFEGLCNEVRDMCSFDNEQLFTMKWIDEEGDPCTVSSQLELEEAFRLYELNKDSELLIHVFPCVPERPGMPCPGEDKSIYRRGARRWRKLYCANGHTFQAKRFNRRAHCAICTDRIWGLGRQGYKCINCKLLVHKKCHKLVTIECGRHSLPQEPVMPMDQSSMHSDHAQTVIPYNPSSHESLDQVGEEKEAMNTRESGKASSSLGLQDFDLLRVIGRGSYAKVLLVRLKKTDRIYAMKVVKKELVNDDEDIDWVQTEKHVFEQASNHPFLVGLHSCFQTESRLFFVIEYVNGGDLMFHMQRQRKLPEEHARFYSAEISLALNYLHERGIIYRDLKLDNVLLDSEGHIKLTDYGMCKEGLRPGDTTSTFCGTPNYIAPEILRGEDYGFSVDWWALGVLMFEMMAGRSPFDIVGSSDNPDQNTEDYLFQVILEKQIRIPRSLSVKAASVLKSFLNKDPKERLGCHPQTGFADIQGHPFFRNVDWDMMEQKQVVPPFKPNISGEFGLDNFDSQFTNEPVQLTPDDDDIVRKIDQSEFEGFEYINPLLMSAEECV
Procedure, shortened: as §1

RET = biological target: T15, RET (Homo sapiens, UniProt P07949); test: KINOMEscan; assay type: binding; settings: 1 uM
T15 construct: purchased Ambit KINOMEscan (DiscoverX)
Procedure, shortened: as §1

VRK2 = biological target: T16, VRK2 (Homo sapiens, UniProt Q86Y07); test: KINOMEscan; assay type: binding; settings: VRK2, 1 uM
T16 construct: purchased Ambit KINOMEscan (DiscoverX)
Procedure, shortened: as §1

NEK4 = biological target: T17, NEK4 (Homo sapiens, UniProt P51957); test: KINOMEscan; assay type: binding; settings: NEK4, 1 uM
T17 construct: purchased Ambit KINOMEscan (DiscoverX)
Procedure, shortened: as §1

LRRK2(G2019S) = biological target: T18, LRRK2(G2019S) (Homo sapiens, UniProt Q5S007, G2019S); test: KINOMEscan; assay type: binding; settings: 1 uM
T18 construct: purchased Ambit KINOMEscan (DiscoverX)
Procedure, shortened: as §1

IRAK4 = biological target: T19, IRAK4 (Homo sapiens, UniProt Q9NWZ3); test: KINOMEscan; assay type: binding; settings: IRAK4, 1 uM
T19 construct: purchased Ambit KINOMEscan (DiscoverX)
T19 sequence (Q9NWZ3 whole entry): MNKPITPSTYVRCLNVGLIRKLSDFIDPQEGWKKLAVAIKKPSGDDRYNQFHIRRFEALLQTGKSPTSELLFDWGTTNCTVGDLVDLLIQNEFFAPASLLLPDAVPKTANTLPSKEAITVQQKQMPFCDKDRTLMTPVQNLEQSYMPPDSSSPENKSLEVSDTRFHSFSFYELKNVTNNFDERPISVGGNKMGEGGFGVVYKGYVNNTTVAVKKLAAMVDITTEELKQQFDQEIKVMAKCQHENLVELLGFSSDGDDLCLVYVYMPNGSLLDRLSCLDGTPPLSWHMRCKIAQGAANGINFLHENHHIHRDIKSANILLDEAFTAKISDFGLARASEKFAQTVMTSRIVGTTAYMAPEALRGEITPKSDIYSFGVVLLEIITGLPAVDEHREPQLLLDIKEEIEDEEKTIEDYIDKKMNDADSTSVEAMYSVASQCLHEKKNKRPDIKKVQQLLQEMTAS
Procedure, shortened: as §1

EGFR(S752-I759del) = biological target: T20, EGFR(S752-I759del) (Homo sapiens, UniProt P00533, DEL752-759); test: KINOMEscan; assay type: binding; settings: 1 uM
T20 construct: purchased Ambit KINOMEscan (DiscoverX)
Procedure, shortened: as §1

CAMK2G = biological target: T21, CAMK2G (Homo sapiens, UniProt Q13555); test: KINOMEscan; assay type: binding; settings: 1 uM
T21 construct: purchased Ambit KINOMEscan (DiscoverX)
Procedure, shortened: as §1

[4] = biological target: T22, RPS6KA6(Kin.Dom.1-N-terminal) (Homo sapiens, UniProt Q9UK32); test: KINOMEscan; assay type: binding; settings: 1 uM
T22 construct: RPS6KA6(Kin.Dom.1-N-terminal); purchased Ambit KINOMEscan (DiscoverX)
Procedure, shortened: as §1

EGFR(T790M) = biological target: T23, EGFR(T790M) (Homo sapiens, UniProt P00533, T790M); test: KINOMEscan; assay type: binding; settings: 1 uM
T23 construct: purchased Ambit KINOMEscan (DiscoverX)
Procedure, shortened: as §1

MET(M1250T) = biological target: T24, MET(M1250T) (Homo sapiens, UniProt P08581, M1250T); test: KINOMEscan; assay type: binding; settings: 1 uM
T24 construct: purchased Ambit KINOMEscan (DiscoverX)
Procedure, shortened: as §1

FLT3(K663Q) = biological target: T25, FLT3(K663Q) (Homo sapiens, UniProt P36888, K663Q); test: KINOMEscan; assay type: binding; settings: 1 uM
T25 construct: purchased Ambit KINOMEscan (DiscoverX)
Procedure, shortened: as §1

SGK3 = biological target: T26, SGK3 (Homo sapiens, UniProt Q96BR1); test: KINOMEscan; assay type: binding; settings: SGK3, 1 uM
T26 construct: purchased Ambit KINOMEscan (DiscoverX)
T26 sequence (Q96BR1 whole entry): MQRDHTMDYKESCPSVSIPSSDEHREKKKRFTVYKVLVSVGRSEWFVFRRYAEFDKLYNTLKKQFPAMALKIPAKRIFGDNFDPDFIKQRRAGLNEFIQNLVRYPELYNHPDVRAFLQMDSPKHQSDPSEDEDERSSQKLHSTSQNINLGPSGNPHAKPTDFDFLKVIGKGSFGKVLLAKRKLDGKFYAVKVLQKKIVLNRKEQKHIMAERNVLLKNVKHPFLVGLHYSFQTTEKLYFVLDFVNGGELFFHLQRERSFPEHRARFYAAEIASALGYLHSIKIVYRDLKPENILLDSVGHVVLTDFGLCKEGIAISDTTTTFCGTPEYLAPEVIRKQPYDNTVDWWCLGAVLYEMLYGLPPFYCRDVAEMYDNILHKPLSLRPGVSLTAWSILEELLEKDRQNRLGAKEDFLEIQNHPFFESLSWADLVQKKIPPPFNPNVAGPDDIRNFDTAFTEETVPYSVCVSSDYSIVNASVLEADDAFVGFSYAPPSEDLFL
Procedure, shortened: as §1

MTOR = biological target: T27, MTOR (Homo sapiens, UniProt P42345); test: KINOMEscan; assay type: binding; settings: 1 uM
T27 construct: purchased Ambit KINOMEscan (DiscoverX)
Procedure, shortened: as §1

CDC2L5 = CDC2L5 (Homo sapiens, UniProt Q14004); settings: CDC2L5, 1 uM
Description: (§2) First, we used Ambit's KINOMEscan™ technology to identify those kinases that are inhibited for substrate binding by the compounds, all assayed at 1 μM. Second, we used Invitrogen's SelectScreen® Biochemical Kinase Profiling Service to determine the in vitro IC50s for the compounds against specific kinases.

PKNB(M.tuberculosis) = PKNB(M.tuberculosis) (Mycobacterium tuberculosis, UniProt P9WI81); settings: 1 uM
Chain of PKNB(M.tuberculosis) (P9WI81 whole entry): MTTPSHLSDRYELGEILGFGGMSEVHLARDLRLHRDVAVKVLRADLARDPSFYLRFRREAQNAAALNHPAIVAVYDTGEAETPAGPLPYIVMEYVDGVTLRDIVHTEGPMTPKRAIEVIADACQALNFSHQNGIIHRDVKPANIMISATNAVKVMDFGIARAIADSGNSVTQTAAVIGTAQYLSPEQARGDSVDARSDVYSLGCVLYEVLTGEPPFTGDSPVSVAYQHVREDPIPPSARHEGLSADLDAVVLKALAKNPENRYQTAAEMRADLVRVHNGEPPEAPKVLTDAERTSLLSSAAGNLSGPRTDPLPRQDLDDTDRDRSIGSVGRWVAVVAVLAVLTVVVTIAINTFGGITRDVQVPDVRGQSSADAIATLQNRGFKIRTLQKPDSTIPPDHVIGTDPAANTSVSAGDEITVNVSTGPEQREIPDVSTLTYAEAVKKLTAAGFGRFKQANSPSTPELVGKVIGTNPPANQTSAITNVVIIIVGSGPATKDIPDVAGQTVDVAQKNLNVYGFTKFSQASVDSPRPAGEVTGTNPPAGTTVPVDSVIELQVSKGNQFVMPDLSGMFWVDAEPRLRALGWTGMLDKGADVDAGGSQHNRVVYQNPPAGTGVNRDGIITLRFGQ
Description: as §2

COc1ccc(-c2cc3nccn3c(Nc3ncccc3C(N)=O)n2)cc1OC.Cl.Cl [BAY61-3606, 2-[7-(3,4-dimethoxyphenyl)-imidazo [1,2-c]pyrimidin-5-ylamino] nicotinamide dihydrochloride, reference compound]
% binding compared to no inhibitor control [1]: 92%
MEK and ERK phosphorylation [2]: unable to do so

COc1ccccc1Nc1nc(-c2ccc(OC)c(OC)c2)cc2nccn12 [BAY derivative 6]
% binding compared to no inhibitor control (CDKL1): 100%
% binding compared to no inhibitor control (YANK1): 100%
% binding compared to no inhibitor control (CASK): 100%
% binding compared to no inhibitor control (TRPM6): 95%
% binding compared to no inhibitor control (PIK3CA(H1047L)): 100%
% binding compared to no inhibitor control (FLT3(D835Y)): 50%
% binding compared to no inhibitor control (EGFR(L858R,T790M)): 85%
% binding compared to no inhibitor control [3]: 74%
% binding compared to no inhibitor control (CDK5): 100%
% binding compared to no inhibitor control (NEK11): 84%
% binding compared to no inhibitor control (MYLK4): 100%
% binding compared to no inhibitor control (MEK5): 100%
% binding compared to no inhibitor control (PRKCI): 100%
% binding compared to no inhibitor control (RET): 100%
% binding compared to no inhibitor control (VRK2): 88%
% binding compared to no inhibitor control (NEK4): 85%
% binding compared to no inhibitor control (LRRK2(G2019S)): 92%
% binding compared to no inhibitor control (IRAK4): 100%
% binding compared to no inhibitor control (EGFR(S752-I759del)): 72%
% binding compared to no inhibitor control (CAMK2G): 100%
% binding compared to no inhibitor control [4]: 70%
% binding compared to no inhibitor control (EGFR(T790M)): 48%
% binding compared to no inhibitor control (MET(M1250T)): 100%
% binding compared to no inhibitor control (FLT3(K663Q)): 63%
% binding compared to no inhibitor control (SGK3): 100%
% binding compared to no inhibitor control (MTOR): 67%
% binding compared to no inhibitor control (CDC2L5): 88%
% binding compared to no inhibitor control (PKNB(M.tuberculosis)): 99%

From paper PMC3399817 (PLoS ONE, 2012)
